The values below come from US11987556B2, “Dual-functional compounds and methods of use” (BIOFRONT THERAPEUTICS (BEIJING) CO., LTD., priority 2020, dated 2024).

The target in one data set is human recombinant PDE4A (Homo sapiens (Human), UniProt P27815). Nature of the data set: PDE fluorescence polarization assay (BPS Bioscience kit), PDE4A. The class given is biochemical. The note with it: FAM-cAMP substrate, 1 hr at room temperature; read-out: IC50 for inhibiting PDE4A. As to the method:
(§1) The inhibition of PDE4 (e.g., PDE4A, PDE4C) activity by the compounds (e.g., compound-1, compound-2, compound-3, compound-4, compound-5, and compound-6) are monitored using the PDE fluorescence polarization assay kits from BPS Bioscience (San Diego, USA) following the provided procedure. This assay is based on the selective binding of the fluorescent dye FAM-labelled AMP generated by the PDEs from the FAM-cAMP to its binding beads.
(§2) Briefly, compounds (2.5 ul of different concentrations diluted in the assay buffer) were mixed with 12.5 uL of the FAM-cAMP substrate (200 nM in the assay buffer) in a 384-well plate, 10 ul of the human recombinant PDE4A (BPS, Catalog #60340) or PDE4C (BPS, Catalog #60384) was added. The plate was incubated for 1 hr at room temperature. 50 ul of the binding agent for FAM-AMP was added. The mixture was incubated at room temperature for 20 min. The amount of binding agent bound FAM-AMP was measured by the fluorescence polarization method on the Envision spectrometer. The potency (IC50 value, Table1) of exemplified compounds was calculated from the dose-response curve using the 4-parameter non-linear regression fitting routine.
(In general: Fluorescence polarisation rises when a labelled molecule tumbles more slowly, as on binding a larger partner.)

In the next data set the target is human recombinant PDE4C (Homo sapiens (Human), UniProt Q08493). Put plainly: PDE fluorescence polarization assay (BPS Bioscience kit), PDE4C. The format is biochemical. The note with it: FAM-cAMP substrate, 1 hr at room temperature; read-out: IC50 for inhibiting PDE4C. Here is the method:
as §1, §2

A short description of data set [1]: Blood level of compound-6 produced after oral dosing of compound-1 in mice. The class given is in vivo. The note with it: 5 mg/kg. As to the method: The exemplified compound-1 (formulated at 0.5 mg/mL in 0.5% carboxymethyl cellulose (CMC)/0.25% Tween-80 in water as a suspension) was dosed orally to 4 mice at 5 mg/kg. […] Approximately 200 ng/mL of compound-6 was detected in the blood at 15 min. Compound-6 blood level peaked at approximately 250 ng/mL between 1 to 2 hrs, and mostly cleared to around 25 ng/mL at 6 hr. […] This kinetic profile of compound-6 blood level provides the opportunities to treat diseases that are responsive to compound-6 treatment, beyond dosing compound-6 directly, such as reducing the expected high Cmax-caused side effects from directly dosing compound-6.

Structures are written as SMILES.

human recombinant PDE4A, sequence (P27815 other isoform, or with tags, fused parts or gaps isoform P27815-4): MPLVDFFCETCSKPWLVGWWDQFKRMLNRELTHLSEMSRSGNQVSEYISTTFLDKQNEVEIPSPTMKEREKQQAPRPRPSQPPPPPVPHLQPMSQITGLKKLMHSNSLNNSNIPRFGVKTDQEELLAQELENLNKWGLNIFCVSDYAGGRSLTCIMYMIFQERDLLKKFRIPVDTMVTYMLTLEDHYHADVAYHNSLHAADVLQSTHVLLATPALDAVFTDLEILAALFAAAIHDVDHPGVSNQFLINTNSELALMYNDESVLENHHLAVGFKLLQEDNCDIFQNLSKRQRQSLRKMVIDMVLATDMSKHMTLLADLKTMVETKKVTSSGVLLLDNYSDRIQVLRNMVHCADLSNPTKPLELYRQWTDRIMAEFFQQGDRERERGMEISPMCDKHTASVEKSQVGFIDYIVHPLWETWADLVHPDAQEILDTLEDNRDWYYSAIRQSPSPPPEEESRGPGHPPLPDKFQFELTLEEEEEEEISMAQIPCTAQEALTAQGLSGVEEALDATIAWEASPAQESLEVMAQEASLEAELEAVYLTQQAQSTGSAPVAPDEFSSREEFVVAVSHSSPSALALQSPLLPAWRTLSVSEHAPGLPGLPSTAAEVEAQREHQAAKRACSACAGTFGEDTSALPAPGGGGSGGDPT
human recombinant PDE4C, sequence (Q08493 whole entry): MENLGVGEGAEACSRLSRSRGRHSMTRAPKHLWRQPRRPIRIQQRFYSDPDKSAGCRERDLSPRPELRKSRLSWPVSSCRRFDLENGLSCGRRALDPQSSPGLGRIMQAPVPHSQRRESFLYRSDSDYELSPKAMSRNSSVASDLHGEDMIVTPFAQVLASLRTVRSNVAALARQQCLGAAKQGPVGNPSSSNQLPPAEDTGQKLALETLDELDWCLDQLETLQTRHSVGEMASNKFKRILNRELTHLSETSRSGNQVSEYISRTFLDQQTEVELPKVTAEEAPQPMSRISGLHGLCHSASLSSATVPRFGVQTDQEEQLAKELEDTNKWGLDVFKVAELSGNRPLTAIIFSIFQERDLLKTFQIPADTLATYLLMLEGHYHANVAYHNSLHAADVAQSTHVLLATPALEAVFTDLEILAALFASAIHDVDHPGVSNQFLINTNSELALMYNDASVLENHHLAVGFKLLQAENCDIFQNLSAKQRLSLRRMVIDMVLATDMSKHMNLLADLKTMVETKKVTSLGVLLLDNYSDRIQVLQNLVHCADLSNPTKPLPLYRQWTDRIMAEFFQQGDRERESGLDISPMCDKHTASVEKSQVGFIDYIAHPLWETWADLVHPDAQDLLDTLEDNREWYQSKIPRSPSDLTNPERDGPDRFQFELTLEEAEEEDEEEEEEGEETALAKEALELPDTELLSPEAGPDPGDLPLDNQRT

As to `CCOc1cc([C@@H](CS(C)(=O)=O)N2C(=O)c3cccc(NC(=O)COC(=O)C(C)(CO[N+](=O)[O-])CO[N+](=O)[O-])c3C2=O)ccc1OC` [compound-2, (S)-2-((2-(1-(3-ethoxy-4-methoxyphenyl)-2-(methylsulfonyl)ethyl)-1,3-dioxoisoindolin-4-yl)amino)-2-oxoethyl 2-methyl-3-(nitrooxy)-2-((nitrooxy)methyl)propanoate], the values for the IC50 on human recombinant PDE4A and on human recombinant PDE4C were 308 nM and 2260 nM, respectively.
Regarding `CCOc1cc([C@@H](CS(C)(=O)=O)N2C(=O)c3cccc(NC(=O)CO)c3C2=O)ccc1OC` [compound-6, N-{2-[(1S)-1-(3-ethoxy-4-methoxyphenyl)-2-methanesulfonylethyl]-1,3-dioxoisoindol-4-yl}-2-hydroxyacetamide], the results for the half-maximal inhibitory concentration (IC50) on human recombinant PDE4A and at human recombinant PDE4C were 214 nM and 734 nM, respectively.
On to `CCOc1cc([C@@H](CS(C)(=O)=O)N2C(=O)c3cccc(NC(=O)CNC(=O)C(C)(C)CO[N+](=O)[O-])c3C2=O)ccc1OC` [compound-3, (S)-3-((2-((2-(1-(3-ethoxy-4-methoxyphenyl)-2-(methylsulfonyl)ethyl)-1,3-dioxoisoindolin-4-yl)amino)-2-oxoethyl)amino)-2,2-dimethyl-3-oxopropyl nitrate], for which the IC50 (commonly the concentration at which inhibition is half-maximal) at human recombinant PDE4A was 215 nM; at human recombinant PDE4C it was 1020 nM.
With `CCOc1cc([C@@H](CS(C)(=O)=O)N2C(=O)c3cccc(NC(=O)COC(=O)C(C)(C)CO[N+](=O)[O-])c3C2=O)ccc1OC` [compound-1, (S)-2-((2-(1-(3-ethoxy-4-methoxyphenyl)-2-(methylsulfonyl)ethyl)-1,3-dioxoisoindolin-4-yl)amino)-2-oxoethyl 2,2-dimethyl-3-(nitrooxy)propanoate], the IC50 on human recombinant PDE4A is 178 nM; on human recombinant PDE4C, 2230 nM. For the same compound, the “bioactivation after oral dosing, forming metabolite compound-6” value in data set [1] is listed as “bioactivated rapidly”.
Take `CCOc1cc([C@@H](CS(C)(=O)=O)N2C(=O)c3cccc(NC(=O)CO[C@H]4CO[C@H]5[C@@H]4OC[C@H]5O[N+](=O)[O-])c3C2=O)ccc1OC` [compound-4, (3R,3aS,6S,6aR)-6-(2-((2-((S)-1-(3-ethoxy-4-methoxyphenyl)-2-(methylsulfonyl)ethyl)-1,3-dioxoisoindolin-4-yl)amino)-2-oxoethoxy)hexahydrofuro[3,2-b]furan-3-yl nitrate]: the IC50 at human recombinant PDE4A came out at 710 nM; at human recombinant PDE4C, 109 nM.
For `CCOc1cc([C@@H](CS(C)(=O)=O)N2C(=O)c3cccc(NC(=O)CNC(=O)O[C@H]4CO[C@H]5[C@@H]4OC[C@H]5O[N+](=O)[O-])c3C2=O)ccc1OC` [compound-5, (3S,3aR,6R,6aS)-6-(nitrooxy)hexahydrofuro[3,2-b]furan-3-yl (2-((2-((S)-1-(3-ethoxy-4-methoxyphenyl)-2-(methylsulfonyl)ethyl)-1,3-dioxoisoindolin-4-yl)amino)-2-oxoethyl)carbamate], the IC50 at human recombinant PDE4A was determined as 38 nM; at human recombinant PDE4C, 826 nM.
